# Test results published in paper PMC6175062, “Gaining Mechanistic Insight Into Coproporphyrin I as Endogenous Biomarker for OATP1B‐Mediated Drug–Drug Interactions Using Population Pharmacokinetic Modeling and Simulation” (Clinical Pharmacology and Therapeutics, 2018).
# Read-outs that look alike come from different tables or passages of the source.
# Key:
# [1] = system: MRP2; design: method as in PMID 28325716; details: read-out: IC50, inhibition of MRP2 transport of CPI; cited from earlier work
# [2] = system: OATP1B3; design: method as in earlier work; details: ref (3, 4), cited from earlier work
# [3] = system: OATP-mediated rosuvastatin uptake in human hepatocytes; assay: Rifampicin inhibition of rosuvastatin uptake in plated human hepatocytes; format: cell-based; details: RSV 2 µM; no pre-incubation effect, same donor
# Experimental: The in vitro IC50 for rifampicin was assessed using CPI and RSV as OATP probe substrates in plated human hepatocytes. Cryopreserved human hepatocytes (Donor QQE, BioreclamationIVT, Baltimore, MD) were thawed and plated at a density of 350,000 cells (1). After culturing for 4h, hepatocytes were washed twice with Dulbecco's phosphate-buffered saline and pre-incubated for an hour with either buffer or rifampicin (0.01-100µM). Following pre-incubation, the medium was replaced with CPI (0.30µM) or RSV (2µM) containing rifampicin (0-100µM). Incubations were stopped after 3 or 5 minutes (for RSV and CPI,respectively) using the washing protocol described previously (2). Monolayers were lysed with water and frozen overnight and then prepared for protein quantification (BCA assay) and LC-MS/MS analysis.
# Lysate concentrations were used to demine uptake rates over a series of free RIF concentrations measured in the medium and plotted as a % of the control to estimate RIF IC50 (Main article Figure 5A and Figure S1). RIF IC50 was determined using equation 1, where U denotes the uptake rate (% vs control) at the free inhibitor concentration in the incubation [I] (µM); R, the range of inhibition; B, the un-inhibitable background (%), and S, the slope factor (GraFit v6).
# [4] = Population PK model of rifampicin plasma data, healthy subjects; format: in vivo, human; details: single 600-mg oral dose
# Experimental: Individual plasma and urine data were obtained from a previous study in 12 healthy male subjects.6 The study was split into three occasions (OCC1–3) with a 7‐day washout period between OCC1 and 2 and OCC2 and 3. During each occasion, baseline CPI urine and plasma samples were collected (Figure S2). A single 600‐mg oral dose of RIF and a single 5‐mg oral dose of RSV were administered to the volunteers in OCC1 and OCC2, respectively. Finally, in OCC3 the same respective doses of RIF and RSV were coadministered to healthy volunteers. Plasma (RIF, RSV, and CPI) were collected at predefined timepoints over the 24‐h period following administration of RIF and/or RSV. Urine samples were collected over one time interval (−7 to 0 h) for the pretreatment sample (CPI monitored) and two subsequent intervals (0–7 h and 7–24 h) for posttreatment samples of CPI and RSV. The total number of plasma samples for modeling purposes were 276 (OCC1 = 144, OCC3 = 132), 420 (OCC1 = 144, OCC2 = 144, OCC3 = 132), and 264 (OCC2 = 132, OCC3 = 132) for RIF, CPI, and RSV, respectively, whereas the total number of urine samples were 102 (pretreatment = 34, posttreatment = 68) and 44 for CPI and RSV, respectively. No subjects enrolled in the clinical study had OATP1B1*5 or OATP1B1*15 mutations, associated with altered OATP1B1 activity.
# Population PK models were developed sequentially for analysis of RIF, CPI, and RSV plasma and urine data using nonlinear mixed‐effects modeling software, NONMEM, with first‐order conditional estimation method.32 Statistical analysis, GOF plots, and other graphical analysis were conducted in MATLAB. The structural models for RIF and RSV (Supplementary Material) were selected based on population PK models available in the literature.34, 35 An exponential model was used to describe interindividual variability random‐effects parameters and IOV was evaluated for the model parameters; occasions were defined as periods of different visits following recruitment or washout periods. Covariates and random‐effects parameters (IIV and IOV) were retained in the models when there was a significant change in objective function and improvement in GOF plots. The incorporation of IIV and IOV in the models is shown in Equation 2: (2) θik=θ⋅e^ηi+κik where θ ik is the parameter for i^th individual on k^th occasion, θ is the population (typical individual) parameter, η i is the parameter that describes the deviation of the i^th individual parameter from the population (IIV), and k ik the parameter that describes the deviation of the i^th individual from the population in addition to η ik at the k^th occasion (IOV). Both random effect parameters (η ik and k ik) are assumed to be randomly distributed with a mean of zero and the variances are estimated during analysis. Proportional or additive or combination of proportional and additive residual error models were investigated for the residuals.
# Based on a previously developed population PK model for RIF, a one compartment first order elimination model with transit absorption model was used to describe plasma concentrations of RIF (12). This model was parameterised using clearance (CL), volume of distribution (V), absorption rate constant (ka), mean transit time (MTT) and number of transit compartments (n). In order to account for the interaction between RIF and CPI and RIF and RSV, sequential analysis of plasma and urine data was conducted. […]
# [5] = design: method as in PMID 25813937; details: in humans; cited from earlier work
# [6] = molecular target: OATP; design: method as in PMID 27170342; details: cited from earlier work
smiles,measurement,setting,value
CO[C@H]1/C=C/O[C@@]2(C)Oc3c(C)c(O)c4c(O)c(c(/C=N/N5CCN(C)CC5)c(O)c4c3C2=O)NC(=O)/C(C)=C\C=C\[C@H](C)[C@H](O)[C@@H](C)[C@@H](O)[C@@H](C)[C@H](OC(C)=O)[C@@H]1C [rifampicin],IC50,[1],83000 nM
same,IC50,"[2]; read-out: IC50, OATP1B3 transfected cells, CPI as substrate",250 to 1610 nM
same,IC50,"[2]; read-out: IC50, OATP1B3 transfected cells, CPIII as substrate",270 to 1410 nM
same,IC50,[3],1000 nM
same,"CL, population estimate",[4],3.97 L/h
same,"MTT (mean transit time), population estimate",[4],0.74 h
same,"V, population estimate",[4],24.7 L
same,"n (number of transit compartments), population estimate",[4],8.63
same,"ka, population estimate",[4]; 12 healthy males,2.09 h⁻¹
same,unbound liver-to-plasma concentration ratio,[5],3.3
same,Ki,[6]; read-out: in vivo Ki estimated from pitavastatin clinical data,230 nM
same,Ki,[6]; read-out: in vivo Ki estimated from pravastatin clinical data,190 nM
